Target: human BTK (Homo sapiens (Human), UniProt Q06187)
Experiment: BTK activity, Invitrogen SelectScreen Biochemical Kinase Profiling Service, Z'-LYTE Screening Protocol
Conditions: Z'-LYTE assay, ATP concentration at Km
Description: BTK activity was determined using Invitrogen's SelectScreen® Biochemical Kinase Profiling Service using the Z′-LYTE Screening Protocol and Assay Conditions (ATP concentration at Km).

human BTK, sequence (Q06187 whole entry): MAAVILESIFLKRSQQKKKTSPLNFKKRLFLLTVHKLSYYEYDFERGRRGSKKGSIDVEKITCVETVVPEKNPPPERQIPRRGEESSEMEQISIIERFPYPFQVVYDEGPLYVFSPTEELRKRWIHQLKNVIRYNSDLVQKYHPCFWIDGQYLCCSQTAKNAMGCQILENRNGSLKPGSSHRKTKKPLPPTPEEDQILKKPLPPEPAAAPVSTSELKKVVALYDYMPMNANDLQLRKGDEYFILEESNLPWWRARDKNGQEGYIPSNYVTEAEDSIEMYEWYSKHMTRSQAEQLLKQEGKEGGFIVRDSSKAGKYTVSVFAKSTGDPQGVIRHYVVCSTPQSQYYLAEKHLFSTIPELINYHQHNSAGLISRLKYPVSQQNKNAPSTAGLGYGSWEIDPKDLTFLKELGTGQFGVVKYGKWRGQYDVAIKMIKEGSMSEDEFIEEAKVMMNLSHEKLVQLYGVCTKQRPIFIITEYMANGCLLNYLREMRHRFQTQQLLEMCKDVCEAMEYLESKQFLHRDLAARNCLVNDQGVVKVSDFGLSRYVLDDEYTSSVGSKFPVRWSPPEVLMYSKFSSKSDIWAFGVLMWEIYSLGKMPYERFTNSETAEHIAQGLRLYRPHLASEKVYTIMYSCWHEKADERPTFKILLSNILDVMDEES

IC50 [nM] | SMILES
< 10 | CN(C)C/C=C/C(=O)Nc1cccc2c1OCc1[nH]c(=O)c3c(N)n(-c4ccc(Oc5ccccc5)cc4)nc3c1-2 [Example 3, (2E)-N-[14-amino-12-oxo-15-(4-phenoxyphenyl)-8-oxa-11,15,16-triazatetracyclo[8.7.0.0^2,7.0^13,17]heptadeca-1(10),2(7),3,5,13,16-hexaen-6-yl]-4-(dimethylamino)but-2-enamide]
< 10 | Cc1ccc(O)cc1-n1nc2c3c([nH]c(=O)c2c1N)COc1c(NC(=O)/C=C/CN(C)C)cccc1-3 [Example 2, (2E)-N-[14-amino-15-(5-hydroxy-2-methylphenyl)-12-oxo-8-oxa-11,15,16-triazatetracyclo[8.7.0.0^2,7.0^13,17]heptadeca-1(10),2(7),3,5,13,16-hexaen-6-yl]-4-(dimethylamino)but-2-enamide]
< 10 | C=CC(=O)Nc1cccc2c1OCc1[nH]c(=O)c3c(N)n(-c4cc(O)ccc4C)nc3c1-2 [Example 1, N-[14-amino-15-(5-hydroxy-2-methylphenyl)-12-oxo-8-oxa-11,15,16-triazatetracyclo[8.7.0.0^2,7.0^13,17]heptadeca-1(10),2(7),3,5,13,16-hexaen-6-yl]prop-2-enamide]
10 to 100 | C=CC(=O)Nc1cccc2c1OCc1[nH]c(=O)c3c(N)n(-c4ccccc4F)nc3c1-2 [Example 4, N-[14-amino-15-(2-fluorophenyl)-12-oxo-8-oxa-11,15,16-triazatetracyclo[8.7.0.0^2,7.0^13,17]heptadeca-1(10),2(7),3,5,13,16-hexaen-6-yl]prop-2-enamide]

Source: patent US9956208B2, “Compounds for the treatment of cancer and inflammatory diseases” (C2 Pharmaceuticals, LLC, priority 2013, dated 2018)
